US11603568B2, “NOX2 as a biomarker of radiotherapy efficiency in cancer patients” (Institut Gustave-Roussy, priority 2016, dated 2023)

What was measured:
Format in all cases: cell-based
[1] = tested on: murine RAW264.7 macrophages; assay: Immunoblots of ATMS1981*, ATM, IRF5 and NOX2 expression in murine RAW264.7 macrophages; settings: for ATM activation (ATMS1981*) by the agent / IRF5 expression induced by the agent: 24 hours, 10 μM CDDP, 200 ng/ml NCZ, 10 μM Olaparib (FIGS. 3E, 3H-3J)
Experimental: (§1) The human monocyte cell line THP1 cells and the murine macrophage-like RAW264.7 cells were maintained in RMPI-1640-Glutamax medium (Life technology) supplemented with 10% heat-inactivated fetal bovine serum (Hycultec GmbH) and 100 UI/ml penicillin-streptomycin (Life technology). To obtain THP1 macrophages, THP1 monocytes were differentiated with 320 nM of PMA (Invivogen) during 24 h. Then, cells were washed three times to remove PMA and non-adherent cells. For the generation of monocytes-derived macrophages (hMDM), buffy coats from healthy donor blood were obtained from the French blood bank (Etablissement Français du Sang) under the control of convention with the INSERM. In accordance with French law, written informed consent for the use of cells for clinical research was obtained from each donor. Monocytes were obtained from buffy coats and were differentiated into macrophages by using human AB serum in macrophage medium, as previously described. […] All cells were maintained under 5% CO2 humidified atmosphere at 37° C. For hypoxic experiments, cells were incubated in the hypoxic hood (Scitive) under 1% 02, with 5% CO2 humidified atmosphere at 37° C. Dimethyl Sulfoxide (DMSO), Lipopolysaccharides (LPS), Dimethyloxalylglycine (DMOG), NAcetyl-L-cysteine (NAC), Diphenyleneiodonium chloride (DPI), Neocarzinostatin (NCZ), cis-Diammineplatinum(II) dichloride (CDDP) were purchased from Sigma-Aldrich. Recombinant murine IFN-γ (mIFN-γ) was obtained from PeproTech Recombinant Human IFN-γ was from R&D Systems. KU55933 was from Tocris Bioscience. Mn(III)tetrakis (4-benzoic acid) porphyrin Chloride (MnTBAP) was from Calbiochem. Olaparib was from Selleckchem. Phorbol 12-myristate 13-acetate (PMA) was from Invivogen.
(§2) Human MDM (10^6) were activated by treatment with […] recombinant human IFN-γ for 24 h. THP1 monocytes were differentiated into macrophages by 320 nM PMA for 24 h. Then, macrophages were activated with 20 ng/ml recombinant human IFN-γ or 100 ng/ml LPS during 24 h. RAW264.7 macrophages were activated with 20 ng/ml recombinant murine IFN-γ or 100 ng/ml LPS for 24 h.
(§3) Cells were seeded in 6-well plates, 12-well plates or 25 cm^2 flasks and irradiated with gamma-ray irradiator IBL-637 (Cs137, 1 Gy/min, gamma CIS-Bio International, IBA, Saclay, France) or with X-ray irradiator (1Gy/min, X-RAD 320, Precision X-Ray). Cells were harvested at indicated time points (hMDMs and THP1 macrophages at 96 h, RAW264.7 macrophages at 6 h) after irradiation for subsequent experiments.
(§4) Cells were washed twice with cold PBS and lysed with NEHN buffer (0.5% NP40, 20% Glycerol, 300 mM NaCl, 20 mM Herps, pH 7.5, and 1 mM EDTA) complemented with 2.5 mM DTT and the protease and phosphatase inhibitor (Roche) at 4° C. 5-20 μg of proteins were separated by NuPAGE 4-12% or 10% SDS-PAGE gel (Invitrogen) and then were transferred onto a nitrocellulose membrane (0.2 Micron, Bio-Rad). Membranes were blocked with 5% nonfat milk or 5% Bovine Serum Albumine (BSA) in Tris-buffered saline and 0.1% Tween 20 (TBS-T) at room temperature for 1 h and then subsequently probed with primary antibodies (1/5000-1/1000) overnight at 4° C. Then, membranes were incubated with appropriate horseradish peroxidase-conjugated anti-rabbit or anti-mouse IgG (SouthernBiotech) for 1 h at room temperature.

hMDM = assay: Immunoblots of ATMS1981*, ATM, IRF5 and NOX2 expression in human monocyte-derived macrophages (hMDM)
Experimental: as §1, with “Dimethyl Sulfoxide (DMSO), Lipopolysaccharides (LPS), Dimethyloxalylglycine (DMOG), NAcetyl-L-cysteine (NAC), Diphenyleneiodonium chloride (DPI), Neocarzinostatin (NCZ), cis-Diammineplatinum(II) dichloride (CDDP) were purchased from Sigma-Aldrich. Recombinant murine IFN-γ (mIFN-γ) was obtained from PeproTech Recombinant Human IFN-γ was from R&D Systems. KU55933 was from Tocris Bioscience. Mn(III)tetrakis (4-benzoic acid) porphyrin Chloride (MnTBAP) was from Calbiochem. Olaparib was from Selleckchem. Phorbol 12-myristate 13-acetate (PMA) was from Invivogen.” left out

macrophages = assay: Macrophage viability (LDH release); settings: data not shown; cells and concentrations as in the activation experiments
Source text: The release of LDH in the supernatants of cultured cells was detected using Cytotoxicity Detection KitPLUS (LDH) from Roche according to the manufacturers' instructions.

[2] = tested on: PMA-treated human THP1 monocytes; assay: Immunoblots of ATMS1981*, ATM, IRF5 and NOX2 expression in PMA-treated human THP1 monocytes; settings: for ATM activation (ATMS1981*) by the agent / IRF5 expression induced by the agent: 24 hours, 20 ng/ml human IFN-γ, 100 ng/ml LPS, 10 μM CDDP (FIGS. 3D, 3F, 3G)
Experimental: as §1, §2, §3, §4

[3] = tested on: murine RAW264.7 macrophages; assay: Detection of ROS production (H2DCFDA staining, flow cytometry); settings: for ROS production after IR or mIFN-γ in presence of the inhibitor: 2 Gy single dose or 20 ng/ml mIFN-γ, NAC 1 μg/ml, DPI 200 nM
Experimental: Hydrogen peroxide and anion superoxide production were determined by staining cells with 5 μM of 2,7-dichlorodihydrofluorescein diacetate (H2DCFDA, Sigma) for 40 min at 37° C. Cells were then washed twice with Hanks' balanced salt solution (HBSS, from Thermo Fisher Scientific) and suspended in cold HBSS solution containing 1% FBS for FACS analysis.
Considering that reactive oxygen species (ROS) have been involved in both ATM activation and macrophage differentiation, the role of ROS production during macrophage activation was investigated.

[4] = tested on: murine RAW264.7 macrophages; assay: Confocal immunofluorescence of DNA damage-associated nuclear foci; settings: 24 h treatment; 20 ng/ml mIFN-γ, 100 ng/ml LPS or 10 μM CDDP (FIGS. 3A-3C)
Experimental: Cells were grown on coverslips and were treated as indicated. After treatment, cells were rinsed twice, fixed with 10% neutral buffered formalin (Sigma-Aldrich) for 10 min and then permeabilized with 0.3% Triton X-100 in PBS for 15 min. Cells were then washed twice with PBS and were blocked with 10% FBS in PBS for 1 h at room temperature, followed by incubation with primary antibodies (1/100) in 10% FBS in PBS for 1 h30 min at room temperature. Then, samples were incubated with secondary antibodies using Alexa Fluor-488 green or Alexa Fluor-546 red (1/500, Life Technologies) and Hoechst 33342 for nuclei (1/1000, Thermo Fisher Scientific) in 10% FBS in PBS for 30 min at room temperature. Coverslips were mounted with Fluoromount-G (SouthernBiotech) ant then visualized with Leica TCS SPE confocal microscope (Leica Microsystemes, France).

[5] = 10 μM MnTBAP, 8 Gy single dose, 48 hours (FIG. 4G)
[6] = 10 μM Olaparib, 2 Gy, 6 hours (FIG. 2P)
[7] = 1 μg/ml NAC, 2 Gy, 6 hours or 20 ng/ml mIFN-γ, 24 hours (FIGS. 4E, 4F)

In the case of O=c1cc(-c2cccc3c2Sc2ccccc2S3)oc(N2CCOCC2)c1 [KU55933], the “γ-H2AX and ATMS1981* phosphorylations and the up-regulation of IRF5 expression after irradiation” value ([1]; 20 μM KU55933, 2 Gy single dose, 6 hours (FIG. 2N)) is reported as “impaired”, the “γ-H2AX and ATMS1981* phosphorylations and the up-regulation of IRF5 expression after irradiation” value (hMDM; 10 μM KU55933, 4 Gy single dose, 96 hours (FIG. 2O)) is reported as “impaired” and the macrophage viability (macrophages) is reported as “without altering macrophage viability”.

COC(=O)CNC(=O)C(=O)OC [DMOG, Dimethyloxalylglycine] was tested, and the “ATMS1981* and IRF5 expressions reduced after mIFN-γ stimulation” value ([1]; 500 μM DMOG, 20 ng/ml mIFN-γ, 24 hours (FIG. 4K)) was “confirmed” and the “IR-mediated ATMS1981* and IRF5 expressions” value ([1]; 500 μM DMOG, 2 Gy single dose, 6 hours (FIG. 4I)) was “reduced”.

In the case of Neocarzinostatin, the “ATM activation (ATMS1981*) by the agent” value ([1]; 20 ng/ml mIFN-γ) is reported as “activated ATM” and the “IRF5 expression induced by the agent” value ([1]; 20 ng/ml mIFN-γ) is reported as “increased IRF5 expression”.

With O=C(O)c1ccc(C2=C3C=CC(=N3)C(c3ccc(C(=O)O)cc3)=c3ccc([nH]3)=C(c3ccc(C(=O)O)cc3)c3ccc([n-]3)C(c3ccc(C(=O)O)cc3)c3ccc2[n-]3)cc1.[Cl-].[Mn+3] (stereo not drawn) [MnTBAP, Mn(III)tetrakis (4-benzoic acid) porphyrin Chloride] the “activating phosphorylation of ATM (ATMS1981*) after IR” value [2, 5] was “inhibited”, the “increased expression of IRF5 after IR” value [2, 5] was “reduced” and the “ROS production after IR or mIFN-γ in presence of the inhibitor” value (shortened to “ROS production … of the inhibitor”) [3] was “blunted the ROS production”. The macrophage viability (macrophages) was “without impacting macrophage viability”.

In the case of c1ccc2c(c1)[I+]c1ccccc1-2 [DPI, Diphenyleneiodonium chloride], the “ATMPS1981* and IRF5 up-regulation after IR or mIFN-γ” value ([1]; 200 nM DPI, 2 Gy, 6 hours or 20 ng/ml mIFN-γ, 24 hours (FIGS. 5L, 5M)) is reported as “impaired”, the “ROS production … of the inhibitor” value [3] is reported as “impaired” and the macrophage viability (macrophages) is reported as “without modifying macrophage viability”.

In the case of N.N.[Cl][Pt][Cl] [Cisplatin, cis-Diammineplatinum(II) dichloride], the “ATM activation (ATMS1981*) by the agent” value ([1]; 20 ng/ml mIFN-γ) is reported as “activated ATM”, the “IRF5 expression induced by the agent” value ([1]; 20 ng/ml mIFN-γ) is reported as “increased IRF5 expression” and the “ATM activation (ATMS1981*) by the agent” value [2] is reported as “activated ATM”. The “IRF5 expression induced by the agent” value [2] was “increased IRF5 expression” and the “ATMS1981*+ and γ-H2AX+ nuclear foci” value [4] was “activated ATM”.

For O=C(c1cc(Cc2n[nH]c(=O)c3ccccc23)ccc1F)N1CCN(C(=O)C2CC2)CC1 [Olaparib], the “ATM activation after irradiation” value [1, 6] was “enhancement of ATM activation”, the “IRF5 expression after irradiation (inflammatory macrophage activation elicited by IR)” value [1, 6] was “increased expression of IRF5” and the “ATM activation (ATMS1981*) by the agent” value ([1]; 20 ng/ml mIFN-γ) was “activated ATM”. For the same molecule, the “IRF5 expression induced by the agent” value ([1]; 20 ng/ml mIFN-γ) was “increased IRF5 expression”.

CC(=O)N[C@@H](CS)C(=O)O [NAC, NAcetyl-L-cysteine] was tested, and the “activating phosphorylation of ATM (ATMS1981*) after IR or mIFN-γ” value [1, 7] was “inhibited”, the “increased expression of IRF5 after IR or mIFN-γ” value [1, 7] was “reduced” and the “ROS production … of the inhibitor” value [3] was “blunted the ROS production”. For the same molecule, the macrophage viability (macrophages) was “without impacting macrophage viability”.

B1: IFN-γ: Recombinant Human IFN-γ from R&D Systems, classical macrophage activator (protein, UniProt P01579 24-161, looked up)
Interferon gamma: QDPYVKEAENLKKYFNAGHSDVADNGTLFLGILKNWKEESDRKIMQSQIVSFYFKLFKNFKDDQSIQKSVETIKEDMNVKFFNSNKKKRDDFEKLTNYSVTDLNVQRKAIHELIQVMAELSPAAKTGKRKRSQMLFRG
In the case of B1, the “NOX2 up-regulated (immunoblot)” value (hMDM; 4 μg/ml hIFN-γ, 24 hours (FIG. 5B)) is reported as “confirmed”, the “NOX2 up-regulated (immunoblot)” value ([2]; 20 ng/ml hIFN-γ, 24 hours (FIG. 5C)) is reported as “confirmed” and the “ATM activation (ATMS1981*) by the agent” value [2] is reported as “activation of ATM”. For the same molecule, the “IRF5 expression induced by the agent” value [2] was “increased expression of IRF5”.

B2: mIFN-γ: Recombinant murine IFN-γ from PeproTech, classical macrophage activator (protein, UniProt P01580 23-155, looked up)
Interferon gamma: HGTVIESLESLNNYFNSSGIDVEEKSLFLDIWRNWQKDGDMKILQSQIISFYLRLFEVLKDNQAISNNISVIESHLITTFFSNSKAKKDAFMSIAKFEVNNPQVQRQAFNELIRVVHQLLPESSLRKRKRSRC
For B2, the “NOX2 up-regulated (immunoblot)” value ([1]; 20 ng/ml mIFN-γ, 24 hours (FIG. 5E)) was “confirmed”, the “ATM activation (ATMS1981*) by the agent” value ([1]; 20 ng/ml mIFN-γ) was “activation of ATM” and the “IRF5 expression induced by the agent” value ([1]; 20 ng/ml mIFN-γ) was “increased expression of IRF5”. For the same molecule, the “ROS production induced by the treatment” value ([3]; 20 ng/ml mIFN-γ (FIGS. 4C, 4D)) was “induced ROS production” and the “ATMS1981*+ and γ-H2AX+ nuclear foci” value [4] was “accumulation of ATMS1981*+ and γ-H2AX+ foci”.
